Test results: patent US20070208043A1, “Use of Serum Amyloid A Gene in Diagnosis and Treatment of Glaucoma and Identification of Anti-Glaucoma Agents” (ALCON, INC., priority 2003, published 2007)
“Also recorded” adds a separate entry of the source. Like-named read-outs stand apart in the source and are kept apart here.

Tests used:
[1] = tested on: SAA induced IL-8 secretion in TM cells; assay: Inhibition of SAA induced IL-8 secretion in TM cells (IL-8 in media by ELISA); assay type: cell-based
Description: FIG. 11. Effect of MAP p38 kinase inhibitors on induction of IL-8 by SAA treatment (1 μg/ml) in TM cells. […] IL-8 was measured in the media by ELISA.
(§1) FIG. 12. […] NTM650-03, p9 or HL-60 cells were treated in serum-free DMEM for 4 hours with 1 μg/ml SAA and the indicated concentrations of SB202580. IL-8 was measured in the media by ELISA.
(§2) One pathway for upregulation of IL-8 is through activation of MAP kinases.

[2] = tested on: SAA stimulated IL-8 secretion in HL-60 cells; assay: Inhibition of SAA stimulated IL-8 secretion in HL-60 cells (IL-8 in media by ELISA); assay type: cell-based; conditions: for Times more effective than SB203580: HL60 cells, inhibition curves; for IC50: Homo sapiens, read-out: Calculated IC50, inhibition of SAA stimulated IL-8 secretion
Description: as §1
FIG. 13. […] IL-8 was measured in the media by ELISA.
as §2

[3] = tested on: Adv.SAA2-induced IOP in mouse; assay: Mouse IOP after intravitreal injection of Adv.SAA2 + anti-CD40L; topical p38 MAPK inhibitor; conditions: topical 1% b.i.d.
Description: Contralateral eye of each animal was not injected. In addition to Adv, each animal received IP injection of anti-CD40L (0.5 mg/injection) on days −1, 0, 1, 2, 5, 9, & 14 to prolong the expression period of the Adv.SAA2. Mouse IOP was measured by Tonolab in a mask way. Mean of IOP for each eye was obtained from 18 to 30 measurements.

plasma SAA concentration = conditions: in vivo; cited from earlier work
HL-60 cells = assay: IL-8 secretion by HL-60 cells in response to rhSAA; assay type: cell-based; conditions: four hours, increasing concentrations
Description: FIG. 5. IL-8 secretion by HL-60 cells in response to increasing concentrations of rhSAA.
Cytokine-like properties of SAA include induction of IL-8 secretion by neutrophils. (Furlaneto and Campa, 2002; He et al. 2003). HL-60 cells, a promyelocytic cell line, was identified that responds to SAA with increased IL-8 secretion, and can be used for in vitro assays of SAA function. HL-60 cells were treated for four hours with increasing concentrations of recombinant human SAA, and IL-8 was measured in the media by ELISA. […] HL-60 cells can be used as a surrogate cell line for functional assays to identify agents that alter SAA function and expression levels.

[4] = tested on: perfused human anterior segments; assay: Perfusion cultured human eyes treated with recombinant SAA; conditions: 1 μg/mL, all five eyes
Description: FIG. 9. Effect of recombinant human Serum Amyloid A (rhSAA, 1 μg/mL; treatment started at time 0) on IOP of perfused human anterior segments.
FIG. 10. Effect of recombinant human Serum Amyloid A (rhSAA, 1 μg/mL; treatment started at time 0) on interleukin-8 (IL-8) level in the perfusate of perfused human anterior segments.
Five pairs of human eyes were perfused with media containing either recombinant SAA (1 μg/mL) (experimental eye) or an equivalent volume of vehicle (control eye). At the end of the culture period, 4 quadrants of each eye were examined by transmission electron microscopy to determine TM tissue viability. Perfusate of each eye was collected and used for ELISA measurement of IL-8 level. […] The change in IOP correlated with SAA-induced increase in interleukin-8 in the perfusates. All five pairs of eyes had acceptable post-perfusion TM viability scores.

[5] = read-out: % Inhibition of SAA induced IL-8 secretion
[6] = 10 μM, TM cells, read-out: % Inhibition of SAA induced IL-8 secretion
[7] = 50 μM, TM cells, read-out: % Inhibition of SAA induced IL-8 secretion
[8] = 1 μM, TM cells, read-out: % Inhibition of SAA induced IL-8 secretion

Question: For `Fc1ccc(-c2c(-c3ccncc3)[nH]c3cccnc23)cc1` [4-azaindole, 3-(4-fluorophenyl)-2-(pyridin-4-yl)-1H-pyrrolo[3,2-b]pyridine], which “Inhibition of SAA induced IL-8 expression (in words)” value ([1]; TM cells) is on record?
Answer: most potent

Question: And the inhibition at 10 µM [1, 5]?
Answer: 22.6%

Question: What about the inhibition at 50 µM [1, 5] of the same molecule?
Answer: 94.3%

Question: And the “Times more effective than SB203580” value [2]?
Answer: approximately 10 times

Question: And the IC50 ([2]; HL-60, 4 h)?
Answer: 300 nM

Question: And the “Effect on IOP in the non-injected eyes” value [3]?
Answer: did not affect IOP

Question: What about the “Effect on Ad.SAA2-induced ocular hypertension (IOP)” value ([3]; days -1 to 7 and 13 to 17, Ad.SAA2 2×10^7 pfu/eye + antiCD40L) of the same molecule?
Answer: significantly inhibited; also recorded: blocked

Question: What about the “Effect on iris hyperemia in the injected eyes” value ([3]; Ad.SAA2-injected eyes) of the same molecule?
Answer: did not affect hyperemia

Question: And the “Time to lower IOP to baseline after drug administration was resumed at day 13” value ([3]; Ad.SAA2-injected mouse eyes)?
Answer: 3 days

Question: Which results are given for `Cc1ccc(-n2nc(C(C)(C)C)cc2NC(=O)Nc2ccc(OCCN3CCOCC3)c3ccccc23)cc1` [BIRB-796, 1-(5-tert-butyl-2-p-tolyl-2H-pyrazol-3-yl)-3(4-(2-morpholin-4-yl-ethoxy)naph-thalen-1-yl)urea]?
Answer: inhibition at 10 µM [1, 6]: 28.9%; inhibition at 50 µM [1, 7]: 78.1%; Inhibition of SAA induced IL-8 expression (in words) ([1]; TM cells): most potent; Times more effective than SB203580 [2]: approximately 10 times; IC50 ([2]; HL-60 cells, serum-free DMEM, 4 hours, 1 μg/ml SAA): 500 nM

Question: For `COc1cccc(-c2cc(=O)c3ccccc3o2)c1N` [PD98059, 2′-amino-3′-methoxyflavone], which inhibition at 50 µM [1, 7] is on record?
Answer: 34%

Question: Which inhibition at 1 µM [1, 8] does the source give for `Oc1ccc(-c2nc(-c3ccc(F)cc3)c(-c3ccncc3)[nH]2)cc1` [SB202190, 4-[4-(4-fluorophenyl)-5-(4-pyridinyl)-1H-imidazol-2-yl]phenol] here?
Answer: 17.2%

Question: And the inhibition at 10 µM [1, 6]?
Answer: 43.3%

Question: What about the inhibition at 50 µM [1, 7] of the same molecule?
Answer: 38.2%

Question: With `C[S+]([O-])c1ccc(-c2nc(-c3ccc(F)cc3)c(-c3ccncc3)[nH]2)cc1` (stereo not shown) [SB203580, 4-(4-fluorophenyl)-2-(4-methylsulfinylphenyl)-5-(4-pyridyl)-1H-imidazole] as the molecule, how does the “Inhibition of SAA induced IL-8 expression (in words)” value ([1]; TM cells) read?
Answer: most potent

Question: And the inhibition at 1 µM [1, 5]?
Answer: 16.3%

Question: What about the inhibition at 10 µM [1, 5] of the same molecule?
Answer: 38.1%

Question: What about the inhibition at 25 µM [1, 5] of the same molecule?
Answer: 61%

Question: And the inhibition at 50 µM [1, 5]?
Answer: 73.8%

Question: What about the inhibition at 100 µM [1, 5] of the same molecule?
Answer: 98.7%

Question: What does the source list for `N#CC(=C(/N)Sc1ccccc1N)/C(C#N)=C(/N)Sc1ccccc1N` [U0126, 1,4-diamino-2,3-dicyano-1,4-bis(2-aminophynyltio)butadiene]?
Answer: inhibition at 1 µM [1, 8]: 30.9%; inhibition at 10 µM [1, 6]: 50.6%; inhibition at 50 µM [1, 7]: 53%

Question: Which “Plasma SAA concentration” value (plasma SAA concentration) does the source give for `Cc1cccc(Nc2cc(Cl)nc(SCC(=O)O)n2)c1C` [WY 14643, (4-chloro-6-(2,3-xylidino)-2-pryrimidinylthiol)-acetic acid] here?
Answer: reduces

B1: recombinant SAA: recombinant human Serum Amyloid A protein (protein, UniProt P0DJI8 19-122, looked up)
Serum amyloid A-1 protein: RSFFSFLGEAFDGARDMWRAYSDMREANYIGSDKYFHARGNYDAAKRGPGGAWAAEVITDARENIQRFFGHGAEDSLADQAANEWGRSGKDPNHFRPAGLPEKY
Question: With B1 as the molecule, how does the IL-8 secretion (HL-60 cells) read?
Answer: increased in a dose dependent manner

Question: What about the “IL-8 level in perfusate” value [4] of the same molecule?
Answer: elevated IL-8 level

Question: What about the “IOP of perfused human eyes” value ([4]; within 24 h of treatment) of the same molecule?
Answer: elevated IOP
